For 26 compounds, IC50 results are on record in patent US8802720B2, “Acylamino-substituted fused cyclopentanecarboxylic acid derivatives and their use as pharmaceuticals” (SANOFI, priority 2008, dated 2014).

Sequence of human Edg-2 receptor (LPA1 receptor) (Q92633 whole entry): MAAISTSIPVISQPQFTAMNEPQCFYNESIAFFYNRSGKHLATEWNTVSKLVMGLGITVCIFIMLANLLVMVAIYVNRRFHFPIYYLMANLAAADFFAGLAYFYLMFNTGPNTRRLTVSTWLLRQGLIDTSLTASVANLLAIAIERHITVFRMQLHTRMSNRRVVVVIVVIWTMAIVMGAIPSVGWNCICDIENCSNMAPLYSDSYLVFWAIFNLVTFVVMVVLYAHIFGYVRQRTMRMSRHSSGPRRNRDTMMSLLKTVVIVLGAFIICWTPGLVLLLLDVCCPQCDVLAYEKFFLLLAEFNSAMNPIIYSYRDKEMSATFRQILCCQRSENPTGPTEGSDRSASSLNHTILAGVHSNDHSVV

This experiment addresses human Edg-2 receptor (LPA1 receptor) (Homo sapiens, UniProt Q92633). Kind of experiment: Edg-2 receptor inhibition by FLIPR calcium fluorescence measurement (LPA-mediated calcium liberation). The format is cell-based. To be noted: CHO cells stably overexpressing human Edg-2 receptor; LPA 18:1 100 nM; fluo-4 fluorescence; triplicate; read-out: Inhibitory concentrations IC50 for inhibition of the Edg-2 receptor. The gist of the method:
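CHO cells stably overexpressing human Edg-2 were fluo-4 loaded and pre-incubated ~5 min with compound (≤0.3% DMSO) in HBSS/HEPES/probenecid, pH 7.5. Then LPA 18:1 at 100 nM final was added. Peak calcium fluorescence over ~3 min, baseline-corrected versus DMSO, gave % inhibition in triplicate and IC50.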
Consider `CCOc1ccc2ccccc2c1-c1cc(C(=O)NC2(C(=O)O)Cc3ccccc3C2)ccc1OC` [Example 331], for which the IC50 was in the range of 100 to 1000 nM. Regarding `COc1ccc(C(=O)NC2(C(=O)O)Cc3ccccc3C2)cc1-c1cc(Cl)ccc1F` [Example 332], the IC50 was in the range of 100 to 1000 nM. The result for `COc1ccc(C(=O)NC2(C(=O)O)Cc3ccccc3C2)cc1-c1cc(Cl)cc(C)c1F` [Example 333] reads less than 100 nM; that for `COc1ccc(C(=O)NC2(C(=O)O)Cc3ccccc3C2)cc1-c1cccc(-n2cccn2)c1` [Example 334], 100 to 1000 nM.

For the compound `COc1ccc(C(=O)NC2(C(=O)O)Cc3ccccc3C2)cc1-c1cc(F)ccc1OC(C)C` [Example 335], the IC50 is less than 100 nM.

Regarding `COc1ccc(C(=O)NC2(C(=O)O)Cc3ccccc3C2)cc1-c1cc(OC(C)C)ccc1F` [Example 336], the IC50 fell in the range of 1000 to 30000 nM. For `COc1ccc(C(=O)NC2(C(=O)O)Cc3ccccc3C2)cc1-c1cc(F)cc(C(F)(F)F)c1` [Example 337] the value was less than 100 nM; for `COc1ccc(C(=O)NC2(C(=O)O)Cc3ccccc3C2)cc1-c1cccc(CN(C)C)c1` [Example 338], 1000 to 30000 nM. The result for `COc1ccc(C(=O)NC2(C(=O)O)Cc3ccccc3C2)cc1-c1cccc(CNC(C)=O)c1` [Example 339] reads 100 to 1000 nM; that for `CCOc1ccc(-c2cc(C(=O)NC3(C(=O)O)Cc4ccccc4C3)ccc2OC)cc1C` [Example 340], 100 to 1000 nM; that for `COc1ccc(C(=O)NC2(C(=O)O)Cc3ccccc3C2)cc1-c1ccc(OC(C)C)c(C)c1` [Example 341], 1000 to 30000 nM.

As for `COc1ccc(C(=O)NC2(C(=O)O)Cc3ccccc3C2)cc1-c1cc(F)cc(Cl)c1` [Example 342], the IC50 is less than 100 nM.

Turning to `COc1ccc(C(=O)NC2(C(=O)O)Cc3ccccc3C2)cc1-c1cc(F)cc(OC(C)C)c1` [Example 343], the IC50 was less than 100 nM. For `COc1ccc(C(=O)NC2(C(=O)O)Cc3ccccc3C2)cc1-c1cc(F)cc(OCC(C)C)c1` [Example 344] the value was 100 to 1000 nM; for `COc1ccc(C(=O)NC2(C(=O)O)Cc3ccccc3C2)cc1-c1ccc(F)c(C(F)(F)F)c1` [Example 345], less than 100 nM. The result for `COc1ccc(C(=O)NC2(C(=O)O)Cc3ccccc3C2)cc1-c1cccc(OCC(F)(F)F)c1` [Example 346] reads 100 to 1000 nM; that for `COc1ccc(C(=O)NC2(C(=O)O)Cc3ccccc3C2)cc1-c1cc(Cl)cc(C(F)(F)F)c1` [Example 347], less than 100 nM; that for `COc1ccc(C(=O)NC2(C(=O)O)Cc3ccccc3C2)cc1-c1cccc(C(F)(F)F)c1F` [Example 348], less than 100 nM.

On to `COc1cc(-c2cc(C(=O)NC3(C(=O)O)Cc4ccccc4C3)ccc2OC)cc(C(F)(F)F)c1` [Example 349], for which the IC50 was less than 100 nM. For the compound `COc1ccc(C(=O)NC2(C(=O)O)Cc3ccccc3C2)cc1-c1cccc(NC(=O)C(C)C)c1` [Example 350], the IC50 lay in the range of 1000 to 30000 nM. As to `COc1ccc(C(=O)NC2(C(=O)O)Cc3ccccc3C2)cc1-c1cc(Cl)ccc1C(F)(F)F` [Example 351], the IC50 was less than 100 nM. Turning to `COc1ccc(C(=O)NC2(C(=O)O)Cc3ccccc3C2)cc1OCCc1cc(Cl)ccc1Cl` [Example 352], the IC50 is less than 100 nM. On to `COc1ccc(C(=O)NC2(C(=O)O)Cc3ccccc3C2)cc1OCCc1nonc1C` [Example 353], for which the IC50 is 1000 to 30000 nM. For `COc1ccc(C(=O)NC2(C(=O)O)Cc3ccccc3C2)cc1OCCc1noc2ccccc12` [Example 354] the value was 1000 to 30000 nM; for `COc1ccc(C(=O)NC2(C(=O)O)Cc3ccccc3C2)cc1OCCc1cc(OC(F)(F)F)ccc1F` [Example 355, 2-{3-[2-(2-fluoro-5-trifluoromethoxy-phenyl)-ethoxy]-4-methoxy-benzoylamino}-indane-2-carboxylic acid], less than 100 nM. For `CCS(=O)(=O)c1cccc(-c2cc(C(=O)NC3(C(=O)O)Cc4ccccc4C3)cc(F)c2OC)c1` [Example 357, 2-[(3′-Ethanesulfonyl-5-fluoro-6-methoxy-biphenyl-3-carbonyl)-amino]-indane-2-carboxylic acid] the value was less than 100 nM.
